In ChEMBL document CHEMBL1201862, “PubChem BioAssay data set” (2004):
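Results reflect a 48-hour exposure of cells in 96-well plates to compound at five concentrations. GI50: concentration for 50% inhibition of growth.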 The source made the active and inactive calls. Cut-off read from the data, not from the text of the source: active = GI50 up to about 1.1 µM and inactive = higher.

Columns and labels:
Experiment in all cases: growth of human tumour cells (NCI), 48 h
TK-10 = system: TK-10
IGROV-1 = system: IGROV-1
EKVX = system: EKVX
OVCAR-4 = system: OVCAR-4
HCT-15 = system: HCT-15
MCF7 = system: MCF7
NCI-H226 = system: NCI-H226
U-251 = system: U-251
T47D = system: T47D
RPMI-8226 = system: RPMI-8226
SK-MEL-2 = system: SK-MEL-2
HT-29 = system: HT-29
SK-OV-3 = system: SK-OV-3
SN12C = system: SN12C
COLO 205 = system: COLO 205
NCI-H460 = system: NCI-H460
RXF 393 = system: RXF 393
A498 = system: A498
OVCAR-5 = system: OVCAR-5
MDA-N = system: MDA-N

| Structure (SMILES) | GI50 (TK-10) | GI50 (IGROV-1) | GI50 (EKVX) | GI50 (OVCAR-4) | GI50 (HCT-15) [µM] | GI50 (MCF7) | GI50 (NCI-H226) | GI50 (U-251) | GI50 (T47D) | GI50 (RPMI-8226) | GI50 (SK-MEL-2) | GI50 (HT-29) | GI50 (SK-OV-3) | GI50 (SN12C) | GI50 (COLO 205) | GI50 (NCI-H460) | GI50 (RXF 393) | GI50 (A498) | GI50 (OVCAR-5) | GI50 (MDA-N) |
| --- | --- | --- | --- | --- | --- | --- | --- | --- | --- | --- | --- | --- | --- | --- | --- | --- | --- | --- | --- | --- |
| CCC1C2Cc3ccc(O)cc3C1(CC)CCN2C (stereo not given) | > 100 µM (inactive) | > 100 µM (inactive) | > 100 µM (inactive) | > 100 µM (inactive) | > 100 | > 100 µM (inactive) | > 100 µM (inactive) | > 100 µM (inactive) | > 100 µM (inactive) | > 100 µM (inactive) | > 100 µM (inactive) | > 100 µM (inactive) | > 100 µM (inactive) | > 100 µM (inactive) | > 100 µM (inactive) | > 100 µM (inactive) | > 100 µM (inactive) | > 100 µM (inactive) | > 100 µM (inactive) | > 100 µM (inactive) |
| COC1/C=C/C(C)C(C(C)C(OC)C(C)CCC(=O)C(C)C(C/C=C/N(C)C=O)OC)OC(=O)/C=C/C=C(\C)CC(OC)C(OC)C2=CC(=O)O[C@@H](C(C)C(OC)CC(OC)/C=C/C(C)C(O)C1)[C@H]2O (stereo not given in full) | 0.0745 µM (active) | 0.119 µM (active) | 0.154 µM (active) | 0.121 µM (active) | 0.0479 | 0.208 µM (active) | 0.06 µM (active) | 0.111 µM (active) | 0.208 µM (active) | 0.0356 µM (active) | 0.0276 µM (active) | 0.0615 µM (active) | 0.122 µM (active) | 0.126 µM (active) | 0.0721 µM (active) | 0.0759 µM (active) | 0.121 µM (active) | 0.0723 µM (active) | 0.163 µM (active) | 0.208 µM (active) |
| O=C(O)CCCCCNC(=O)CCC(CN(CC(=O)OCc1ccccc1)CC(=O)OCc1ccccc1)N(CC(=O)OCc1ccccc1)CC(=O)OCc1ccccc1 (stereo not given) | 16.3 µM (inactive) | 17.6 µM (inactive) | 22 µM (inactive) | 16.9 µM (inactive) | 17.9 | 19.4 µM (inactive) | 22.9 µM (inactive) | 22 µM (inactive) | 17.2 µM (inactive) | 10.3 µM (inactive) | 16 µM (inactive) | 17.9 µM (inactive) | 13.3 µM (inactive) | 18.4 µM (inactive) | 16.7 µM (inactive) | 30.4 µM (inactive) | 14.7 µM (inactive) | 17.9 µM (inactive) | 18.2 µM (inactive) | 18.2 µM (inactive) |
| COc1cc(C2c3cc4c(cc3OC(NNc3ccccc3)C2C)OCO4)cc(OC)c1O (stereo not given) | 4.63 µM (inactive) | 3.2 µM (inactive) | 7.8 µM (inactive) | 13.3 µM (inactive) | 0.313 | 2.7 µM (inactive) | 3.56 µM (inactive) | 2.55 µM (inactive) | 0.757 µM (active) | 0.995 µM (active) | 0.724 µM (active) | 1.23 µM (inactive) | 3.79 µM (inactive) | 0.54 µM (active) | 2.93 µM (inactive) | 0.337 µM (active) | 1.92 µM (inactive) | 3.85 µM (inactive) | 3.21 µM (inactive) | 0.294 µM (active) |
| COc1cc2cc(C(=O)Nc3cc4n(n3)-c3ccccc3C4)[nH]c2c(OC)c1OC | 1.85 µM (inactive) | 2.73 µM (inactive) | 2.17 µM (inactive) | 1.24 µM (inactive) | 2.52 | 2.58 µM (inactive) | 1.22 µM (inactive) | 8.04 µM (inactive) | 0.883 µM (active) | 1.06 µM (active) | 2.3 µM (inactive) | 11.9 µM (inactive) | 6.25 µM (inactive) | 8.79 µM (inactive) | 3.06 µM (inactive) | 1.64 µM (inactive) | 30.1 µM (inactive) | 23.4 µM (inactive) | 8.93 µM (inactive) | 2.35 µM (inactive) |
